Legend:
VCaP = experiment: In vitro cell proliferation assay (MTS); assay type: cell-based, human; conditions: VCaP cells
Protocol: (§1) The IC50 for each cell line was assessed in by MTS assays as described in Example 1 (Methods). […] The IC50 unit is μM.
(§2) All cell lines were obtained from the American Type Culture Collection (Manassas, Va.), except DUCaP, which was obtained from Dr. Kenneth Pienta at University of Michigan. PWR1E and MDAPCa2b cells were grown in BRFF-HPC1 serum-free medium (AthenaES, Baltimore, Md.), and all other cells were cultured in RPMI 1640 supplemented with 10% fetal bovine serum, 100 IU/ml penicillin, and […] (Invitrogen, Carlsbad, Calif.). DUCaP cells were maintained in the presence of an immortalized mouse fibroblast cell line, which formed a layer beneath DUCaP cells that easily dislodged. Cells were incubated at 37° C. with circulation of 5% CO2.
(§3) The optimum number of cells to seed in 96-well plates to achieve linearity were determined in pilot experiments. Cells were plated at density of 2000-5000 cells/well into 96-well plates and cultured overnight. Cells were then treated with dasatinib at serially diluted concentrations. Three days later, MTS was added to the medium and quantified on a SPECTRAMAX® photometric plate reader (Molecular Devices, Sunnyvale, Calif.) at 490 nm. The results were plotted against drug concentrations and IC50s were calculated using Prism4 software (GraphPad, San Diego, Calif.). The IC50 was the concentration of dasatinib that would reduce cell proliferation by 50% compared to control. Minimum three independent assays were performed for each cell line. […] In the latter case, the concentration of dasatinib that was able to consistently reduce cell proliferation was used as IC50. […] Dasatinib stock, dissolved in DMSO, was 10 mg/ml.

HPV7 = experiment: In vitro cell proliferation assay (MTS); assay type: cell-based, human; conditions: HPV7 cells
Protocol: as §1, §2, §3

DU145 = experiment: In vitro cell proliferation assay (MTS); assay type: cell-based, human; conditions: DU145 cells
Protocol: as §1, §2, §3

[1] = test system: PWR1E, RWPE2, PC3, DU145 and LNCaP cells; experiment: Microarray gene expression profiling of drug-treated vs mock-treated cell lines (genes modulated by BMS-A); assay type: cell-based, human
Protocol: AFFYMETRIX® HG-U133v2 gene chips containing ˜22,000 probe sets were used for gene expression profiling (Affymetrix, Santa Clara, Calif.). Total RNA was isolated from the cells using the RNeasy kits (Qiagen, Valencia, Calif.). The quality of the RNA was assessed using an Agilent 2100 Bioanalyzer (Agilent, Santa Clara, Calif.). Ten μg of total RNA was used for the preparation of biotin-labeled cRNA. Chip hybridization, scanning and data acquisition were performed according to the Expression Analysis Technical Manual provided by the manufacturer.
The raw expression data were normalized using an RMA algorithm and analyzed in PARTEK® Discovery Suite software (Partek, St Louis, Mo.). Two statistical analyses including 1-way ANOVA for comparison of gene expression between sensitive and resistant cell line groups, and Pearson correlation between gene expression level and log2IC50 values were performed to identify genes whose baseline expression levels correlated with the sensitivity to dasatinib in 16 prostate cell lines (p value<0.05 in both analyses). […] ESTs and gene duplicates were eliminated from the final list. Gene expression profiles of drug treated (100 nM for 2 days) cell lines were compared with those of DMSO control using paired t-test (p value<0.05). Clustering analysis was performed using GeneCluster software and heatmaps were generated with red and green indicating high or low expression respectively.

PC3 xenograft tumors = experiment: PC3 xenograft tumor growth; assay type: in vivo, nu/nu athymic mice; conditions: 15 or 30 mg/kg orally twice a day, 5-day-on 2-day-off, 20 doses
Protocol: FIG. 5. […] Xenograft tumors were established subcutaneously in nu/nu athymic mice. The mice were divided into three groups each with 8 mice after tumors had reached approximately 200 mg. […] Dasatinib was administered orally twice a day on a 5-day-on 2-day-off schedule for 20 doses. The tumor size measurement and blood sampling were performed prior to treatment and weekly for two weeks after treatment initiation. […] Experiments were performed as described in Example 2.
The mice were divided into three groups each with 8 mice after tumors had reached approximately 200 mg. […] Dasatinib was administered orally twice a day on a 5-day-on 2-day-off schedule for 20 doses. The tumor size measurement and blood sampling were performed prior to treatment and weekly for two weeks after treatment initiation. Tumor weight was determined using the following equation: tumor weight=(length*width^2)/2.

[2] = 100 nM for 2 days vs DMSO control, paired t-test p<0.05, 5 sensitive cell lines

Cc1nc(Nc2ncc(C(=O)Nc3c(C)cccc3Cl)s2)cc(N2CCN(CCO)CC2)n1 [BMS-A, N-(2-chloro-6-methylphenyl)-2-[[6-[4-(2-hydroxyethyl)-1-piperazinyl]-2-methyl-4-pyrimidinyl]amino]-5-thiazolecarboxamide]
IC50 (VCaP; Homo sapiens, 72 h, MTS, three days, highly resistant: concentration that consistently reduced proliferation used as IC50, read-out: mean IC50 (μM) to BMS-A): 2 µM
Classification (VCaP; based on IC50): Resistant (those having an IC50 above 0.2 μm were considered to be resistant)
Classification (HPV7; based on IC50): Sensitive (The cell lines with an IC50 lower than 0.2 μm were defined as sensitive to the compound)
IC50 (HPV7; Homo sapiens, 72 h, MTS, three days, read-out: mean IC50 (μM) to BMS-A): 0.127 µM
Classification (DU145; based on IC50): Sensitive (The cell lines with an IC50 lower than 0.2 μm were defined as sensitive to the compound)
IC50 (DU145; Homo sapiens, DU-145, 72 h, MTS, three days, read-out: mean IC50 (μM) to BMS-A): 0.057 µM
Modulated by BMS-A: ANXA3 (annexin A3) expression [1, 2]: Decreased
Modulated by BMS-A: ARNTL2 expression [1, 2]: Decreased
Modulated by BMS-A: AXL expression [1, 2]: Decreased
Modulated by BMS-A: CST6 (cystatin E/M) expression [1, 2]: Decreased
Modulated by BMS-A: EREG (epiregulin) expression [1, 2]: Decreased
Modulated by BMS-A: FHL2 expression [1, 2]: Decreased
Modulated by BMS-A: LAMC2 (laminin, gamma 2) expression [1, 2]: Decreased
Modulated by BMS-A: PLAU (plasminogen activator, urokinase) expression [1, 2]: Decreased
Modulated by BMS-A: SCEL (sciellin) expression [1, 2]: Decreased
Modulated by BMS-A: ZBED2 expression [1, 2]: Decreased
Modulated by BMS-A (p < 0.05): AXL expression ([1]; gene AXL receptor tyrosine kinase (AXL), probe 202686_s_at, Gene No. 52, expressed in sensitive cell lines): decreased
Modulated by BMS-A (p < 0.05): ANXA3 expression ([1]; gene annexin A3 (ANXA3), probe 209369_at, Gene No. 8, expressed in sensitive cell lines): decreased
Modulated by BMS-A (p < 0.05): ARNTL2 expression ([1]; gene aryl hydrocarbon receptor nuclear translocator-like 2 (ARNTL2), probe 220658_s_at, Gene No. 100, expressed in sensitive cell lines): decreased
Modulated by BMS-A (p < 0.05): CST6 expression ([1]; gene cystatin E/M (CST6), probe 206595_at, Gene No. 15, expressed in sensitive cell lines): decreased
Modulated by BMS-A (p < 0.05): EREG expression ([1]; gene epiregulin (EREG), probe 205767_at, Gene No. 43, expressed in sensitive cell lines): decreased
Modulated by BMS-A (p < 0.05): FHL2 expression ([1]; gene four and a half LIM domains 2 (FHL2), probe 202949_s_at, Gene No. 54, expressed in sensitive cell lines): decreased
Modulated by BMS-A (p < 0.05): LAMC2 expression ([1]; gene laminin, gamma 2 (LAMC2), probe 202267_at, Gene No. 33, expressed in sensitive cell lines): decreased
Modulated by BMS-A (p < 0.05): PLAU (uPA) expression ([1]; gene plasminogen activator, urokinase (PLAU, also referred to as uPA), probe 205479_s_at, Gene No. 63, expressed in sensitive cell lines): decreased
Modulated by BMS-A (p < 0.05): SCEL expression ([1]; gene sciellin (SCEL), probe 206884_s_at, Gene No. 3, expressed in sensitive cell lines): decreased
PC3 xenograft tumor growth (PC3 xenograft tumors): inhibited
